Experimental data reported in patent US11185521B2, “Substituted aromatic compounds and pharmaceutical compositions for the prevention and treatment of osteoporosis” (Liminal BioSciences Inc., priority 2014, dated 2021).
“Also recorded” adds a separate entry of the source.

Columns and labels:
RAW264.7 cells [1] = assay: IL-12 production in LPS-stimulated RAW264.7 cells (IL-12 ELISA); assay type: cell-based, murine; details: 100 ng/mL LPS, 21 hours
Procedure: RAW264.7 cells were cultured with 100 ng/mL of LPS in presence or absence of compounds for 21 hours in a humidified atmosphere of 95% air-5% carbon dioxide at 37° C. IL-12 concentration in the culture medium was measured using the IL-12 ELISA according to the manufacturer (BD Biosciences) recommendations. […] An in vitro IL-12 production assay was used for screening potential inhibitors of osteoclastogenesis.

db/db mice = assay: Serum adiponectin level in uninephrectomized diabetic obese (db/db) mice; assay type: in vivo; details: uninephrectomized db/db mice treated for 113 days (FIG. 9)
Procedure: To determine if selected compounds of this invention can affect serum adiponectin level, a model of diabetes type II/obesity was used. Briefly, db/db mice (6 weeks-old were uninephrectomized and treated with Compound XIV for 113 days (structure is shown in Table 1 hereinbefore). Serum adiponectin levels were determined with a mouse adiponectin enzyme-linked immunosorbant assay kit (R&D Systems).

[2] = tested on: ovariectomized (OVX) rats; assay: Ovariectomized (OVX) rat model of osteoporosis; assay type: in vivo, Sprague Dawley rats
Text: Although in comparison to humans, the skeletal mass of rats remains stable for a protracted period during their lifespan, rats can be ovariectomized to make them sex-hormone deficient, and to stimulate the accelerated loss of bone that occurs in women following menopause. Ovariectomy induces bone loss in the rat and postmenopausal bone loss share many similar characteristics. These include: increased rate of bone turnover with resorption exceeding formation; an initial rapid phase of bone loss followed by a much slower phase; greater loss of cancellous than cortical bone; decreased intestinal absorption of calcium; some protection against bone loss by obesity; and similar skeletal response to therapy with estrogen, tamoxifen, bisphosphonates, parathyroid hormone, calcitonin and exercise. These wide-ranging similarities are strong evidence that the ovariectomized rat bone loss model is suitable for studying problems that are relevant to postmenopausal bone loss. Sprague Dawley rats (250 g) were ovariectomized (OVX) at day 0. Rats were treated by oral gavage with Compound I (200 mg/kg) from day 14 to day 68. Evaluation of different parameters (body weight, calcium loss, osteoclast markers (RANKL and TRAP mRNA expression), collagen content and histology) was performed at day 68.

RAW264.7 cells [3] = assay: LPS-induced osteoclastogenesis in RAW264.7 cells, TRAP staining; assay type: cell-based, murine; details: RAW264.7 cells differentiated with LPS (1 ug/ml), days 3-5 (FIG. 1)
Text: RAW264.7 cells are precursors of osteoclasts and can be differentiated by several factors including Receptor activator of NF-κB ligand (RANKL) or Lipopolysaccharide (LPS). Osteoclasts are characterized by high expression or tartrate resistant acid phosphatase (TRACP) and Matrix Metalloproteinase-9 (MMP-9) which can be used as markers for osteoclasts. […] The effect of selected compounds on TRAP (osteoclast marker) and IL-12 was undertaken in RAW264.7 cells, a murine osteoclast precursor cell line, in comparison with capric acid, as a positive control for reduction of osteoclastogenesis (Park et al. (2011) PLOS One Volume 6, Issue 11, 8 pages). RAW264.7 cells were differentiated by the incubation with LPS (1 ug/ml) in presence or not of capric acid or Compound I. On days 3-5, osteoclast formation was evaluated using tartrate-resistant acid phosphatase (TRAP) staining.

RAW264.7 cells [4] = details: cited from earlier work

For `CCCC/C=C/c1cccc(CC(=O)[O-])c1.[Na+]` [Compound V, Sodium Salt of 2-(3-(Hex-1-enyl]phenyl)acetic Acid], the IL12 (RAW264.7 cells [1]; compound concentration 0.50 mM) was 52.5 pg/mL.

Work on `CCCCCc1cc(CCCCC)cc(CCC(=O)[O-])c1.[Na+]` [Compound XXIV, Sodium 3-[3,5-Dipentylphenyl]propanoate] yielded an IL12 (RAW264.7 cells [1]; compound concentration 0.0025 mM) of 79.9 pg/mL.

With `CCCCCc1cccc(CC(=O)[O-])c1O.[Na+]` [Compound IX, Sodium Salt of 2-(2-Hydroxy-3-pentylphenyl)acetic Acid] the IL12 (RAW264.7 cells [1]; compound concentration 0.1 mM) was 12.57 pg/mL.

For `CCCCCc1cc(CC(=O)[O-])ccc1O.[Na+]` [Compound VIII, Sodium Salt of 2-(4-Hydroxy-3-pentylphenyl)acetic Acid], the IL12 (RAW264.7 cells [1]; compound concentration 0.50 mM) was 20 pg/mL.

With `CCCCCc1cc(CCCCC)c(O)c(CC(=O)[O-])c1.[Na+]` [Compound XVI, Sodium Salt of 2-(2-Hydroxy-3,5-dipentylphenyl)acetic Acid] the IL12 (RAW264.7 cells [1]; compound concentration 0.005 mM) was 15 pg/mL.

`CCCCCc1cccc(CC(=O)[O-])c1F.[Na+]` [Compound XI, Sodium Salt of 2-(2-Fluoro-3-pentylphenyl)acetic Acid] gave an IL12 (RAW264.7 cells [1]; compound concentration 0.25 mM) of 15 pg/mL.

For `CCCCCc1cc(O)cc(CC(=O)[O-])c1.[Na+]` [Compound VII, Sodium Salt of 3-hydroxy-5-pentylphenylacetic Acid], the IL12 (RAW264.7 cells [1]; compound concentration 0.50 mM) was 16.6 pg/mL.

Work on `CCCCc1cccc(CCC(=O)[O-])c1.[Na+]` [Compound III, Sodium Salt of 3-(3-butylphenyl)propionic Acid] yielded an IL12 (RAW264.7 cells [1]; compound concentration 0.50 mM) of 62.28 pg/mL.

For `CCCCCc1cc(CCCCC)cc(CC(=O)[O-])c1.[Na+]` [Compound XIV, Sodium 2-[3,5-Dipentylphenyl] Acetate], the melting point was 225 to 230 °C and the serum adiponectin level (db/db mice) was “increased the level of adiponectin to the level of the sham animals”.

In the case of `CCCCCc1cc(CC(=O)[O-])ccc1F.[Na+]` [Compound XII, Sodium Salt of 2-(4-Fluoro-3-pentylphenyl)acetic Acid], the IL12 (RAW264.7 cells [1]; compound concentration 0.50 mM) is reported as 419.6 pg/mL.

For `CCCCCc1cccc(CC(=O)[O-])c1.[Na+]` [Compound I, Sodium Salt of (3-pentylphenyl)acetic Acid], the IL12 (RAW264.7 cells [1]; compound concentration 0.50 mM) was 54.34 pg/mL, the “IL-12 production (in words)” value (RAW264.7 cells [1]; various concentrations (FIG. 2, Table 2)) was “strong induction of IL-12 production” and the “body weight / ovariectomized-induced obesity” value ([2]; oral gavage 200 mg/kg day 14 to day 68 (FIG. 3)) was “reduced ovariectomized-induced obesity”. The “calcium loss in urine” value ([2]; oral gavage 200 mg/kg, day 28 to day 56 (FIG. 4)) was “reduced significantly the calcium loss”, the “acid phosphatase activity in serum” value ([2]; oral gavage 200 mg/kg, day 28 to day 56 (FIG. 5)) was “reduces the acid phosphatase activity” and the “ratio of mRNA expression of RANKL/OPG in rat tibia” value ([2]; oral gavage 200 mg/kg, day 68 (FIG. 6)) was “decreased”. For the same compound, the “collagen content in the metaphyse of the femur” value ([2]; oral gavage 200 mg/kg, day 68 (FIG. 7)) was “increased the collagen content”, the “bone loss in the metaphysis of the femur, histology” value ([2]; oral gavage 200 mg/kg, day 68 (FIG. 8)) was “reduced bone loss” and the “osteoclast formation, TRAP staining” value (RAW264.7 cells [3]) was “no TRAP cells are observable”.

`CCC/C=C/c1cccc(CC(=O)[O-])c1.[Na+]` [Compound IV, Sodium Salt of E-(3-pent-1-enyl-phenyl)acetic Acid] showed an IL12 (RAW264.7 cells [1]; compound concentration 0.50 mM) of 19.31 pg/mL.

In the case of `CCCCCc1cc(F)cc(CC(=O)[O-])c1.[Na+]` [Compound X, Sodium Salt of 2-(3-fluoro-5-pentylphenyl)acetic Acid], the IL12 (RAW264.7 cells [1]; compound concentration 0.50 mM) is reported as 80 pg/mL.

In the case of `CCCCCc1cccc(C(F)C(=O)[O-])c1.[Na+]` (racemic) [Compound XIII, Sodium Salt of (RS)-2-Fluoro-2-(3-pentylphenyl)acetic Acid], the IL12 (RAW264.7 cells [1]; compound concentration 0.25 mM) is reported as 17.6 pg/mL.

In the case of `CCCCCCCCCC(=O)O` [capric acid], the “osteoclast formation, TRAP staining” value (RAW264.7 cells [3]) is given as “no TRAP cells are observable”, the IL-12 production (RAW264.7 cells [4]; literature (Wang et al. 2006)) is given as “increase in IL-12 production; also recorded: increases the production of IL-12” and the “phosphatase (TRAP)-positive cells” value (RAW264.7 cells [4]; literature (Wang et al. 2006)) is given as “reduction of phosphatase (TRAP)-positive cells”. For the same compound, the “LPS-upregulated iNOS mRNA levels and nitric oxide (NO) production” value (RAW264.7 cells [4]; literature) was “inhibited them” and the “monocyte chemoattractant protein-1 (MCP-1) mRNA expression” value (RAW264.7 cells [4]; literature) was “inhibited monocyte chemoattractant protein-1 (MCP-1) mRNA expression”.

For `CCCCCc1cccc(CCC(=O)[O-])c1.[Na+]` [Compound II, Sodium Salt of 3-(3-pentylphenyl)propionic Acid], the IL12 (RAW264.7 cells [1]; compound concentration 0.50 mM) was 350.65 pg/mL.

With `CCCCCCc1cccc(CC(=O)[O-])c1.[Na+]` [Compound VI, Sodium Salt of 2-(3-Hexylphenyl)acetic Acid] the IL12 (RAW264.7 cells [1]; compound concentration 0.25 mM) was 58.87 pg/mL.
